Measurements published in EP1013272A1, “Manipulation of the activity of a nitric oxide radical production pathway for the treatment of diseases associated with the presence of oxygen free radicals” (Biomedical Primate Research Centre (BPRC), priority 1998, dated 2000).

Columns and labels:
[1] = system: Con A-activated splenocytes; test: ELISPOT enumeration of IFN-γ and IL-4 producing cells in Con A-stimulated spleen cell cultures with culture supplements; type: cell-based, rat
Experimental: The aseptically removed spleen was gently crushed with the blunt end of a 5-ml syringe plunger and passaged through a fine mesh nylon screen. Erythrocytes were hemolysed by adding cold sterile water for 20 sec. to cell pellets followed by the addition of half the volume of 2.7% saline. The number of cells was determined by use of Türk's solution and cell viability by means of trypan blue exclusion. Cell suspensions in which the viability was less than 85% were excluded from the studies. Splenocytes were washed twice with CM5, adjusted to 4 x 10^6 cells/ml, transferred to a 24-well culture plate (1.0 ml/well) and stimulated with Con A (5 µg/ml) in the presence or absence of various supplements (as indicated in the text) for 40 h at 37°C in a humidified atmosphere containing 5% CO2. Thereafter, non-adherent cells were collected and subjected to ELISPOT analyses as described below.
The ELISPOT assay for detecting single cytokine secreting cells has been detailed previously (17). Briefly, the wells of PVC microplates were coated with monoclonal antibodies specific for rat IFN-γ or rat IL-4. After washing and postcoating, 100 µl suspensions of Con A-activated splenocytes were pipetted into the wells. The cells were allowed the produce cytokines for either 4 h (IFN-γ pc) or 16 h (IL-4 pc). Thereafter, cells were lysed for 10 minutes with ice-cold distilled water. Subsequently, the wells were thoroughly washed with PBS containing 0.05% Tween-20. Spots were detected by the sequential incubation of biotinylated rabbit anti-cytokine antibodies and goat anti-biotin antibodies conjugated to alkaline phosphatase (AP). The AP substrate 5-bromo-4-chloro-3-indolyl phosphate was used to produce blue zones ('spots') that visualised the positions of the individual spot-forming cells (SFC). SFC were enumerated by image analysis using a stereo microscope coupled to a colour video camera and Micro Image software from Olympus Optical Co. The frequency of spontaneously occurring SFC was always less than 1% of the mitogen-induced frequency.

[2] = GSH-mediated decomposition of GSNO in phosphate buffer (absorbance 335 nm, nitrite, nitrate, ammonia); type: physicochemical
Experimental: For each experiment GSNO was prepared freshly. […] Three independent experiments were performed with similar results. […] Nitrite levels were measured by the colorimetric Griess reaction. Two independent experiments were performed which produced similar results.
Nitrate was not detected in the solutions.

peritoneal macrophages [3] = test: H2O2 production by purified peritoneal macrophages (homovanillic acid/HRP); type: cell-based, rat; conditions: stimulus PMA 5 ng/ml
Experimental: The spontaneous or PMA/IFN-γ-triggered release of H2O2 was determined by the same method as described for splenocytes. Macrophage monolayers were incubated for 24 h in CM10 with or without rat IFN-γ (1000 U/ml). Subsequently, cells were washed twice with prewarmed PBS and incubated for 1 h in 1.0 ml PBS containing […] CaCl2, […] MgCl2, […] D-glucose, 1.0 unit HRP, […] homovanillic acid and 5 ng/ml PMA. After termination of the reaction, the amount of oxidised homovanillic acid in the supernatant was determined spectrofluorometrically. The cellular proteins in the wells were solubilized by adding 250 µl 0.5% (w/v) sodium dodecylsulphate in 0.2 N NaOH. The amount of solubilized protein was determined by a modification of the Lowry method (19). The results are expressed as nmoles H2O2 per mg of protein.
(§1) Peritoneal cells were collected from rats by lavage with 10 ml ice-cold saline containing 50 units/ml heparin. Cells were washed twice with CM10 and resuspended in CM10 to a concentration of 2 x 10^6 cells/ml. Total cell counts were obtained with a Bürker hemocytometer and differential counts performed on centrifuge preparations fixed in absolute methanol and stained with Giemsa stain. The peritoneal cell suspension of Lewis rats consisted of 70 ± 3% macrophages, 13 ± 1% lymphocytes, 14 ± 1% granulocytes and 3 ± 1% mast cells (n = 3). […]

peritoneal macrophages [4] = test: Superoxide anion production by purified peritoneal macrophages (SOD-inhibitable ferricytochrome C reduction); type: cell-based, rat; conditions: stimulus PMA 5 ng/ml
Experimental: as §1, with “3). The peritoneal cells of BN rats were composed of 61 ± 2% macrophages, 12 ± 1% lymphocytes, 26 ± 2% granulocytes and 2 ± 1% mast cells (n = 3). Cells were fractionated by culturing them in the wells of a 24-well tissue culture plate at a concentration of 2 x 10^6 cells/ml in CM10.” for “3).”
The pMØ monolayers were incubated for 20 h at 37°C in CM10 and subsequently washed (twice) with Hanks' balanced salt solution (HBSS) without phenol red. […] Each test was run in duplicate and the absorption increase at 550 nm was measured using a Beckmann DU-5 spectrophotometer. ^·O2^- release by splenocytes was determined after Con A activation of 4 x 10^6 cells for 20 h. […]

[5] = BN normal rats, GSH 2 mM, Con A
[6] = Lewis normal rats, GSH 2 mM, Con A
[7] = excess reducing agent added to cultures, splenocytes from BN or Lewis rats
[8] = normal Lewis rats, GSH 2 mM, no XO/HY, Con A 5 µg/ml (Table 5)
[9] = BN naive rats, NMMA 180 µM added after 20 h Con A + 2 mM GSH, further 20 h
[10] = BN naive rats, NMMA 360 µM added after 20 h Con A + 2 mM GSH, further 20 h
[11] = BN, HgCl2-exposed rats, NMMA 180 µM added after 20 h Con A + 2 mM GSH, further 20 h
[12] = BN, HgCl2-exposed rats, NMMA 360 µM added after 20 h Con A + 2 mM GSH, further 20 h
[13] = Lewis naive rats, NMMA 180 µM added after 20 h Con A + 2 mM GSH, further 20 h
[14] = Lewis naive rats, NMMA 360 µM added after 20 h Con A + 2 mM GSH, further 20 h
[15] = Lewis, HgCl2-exposed rats, NMMA 180 µM added after 20 h Con A + 2 mM GSH, further 20 h
[16] = Lewis, HgCl2-exposed rats, NMMA 360 µM added after 20 h Con A + 2 mM GSH, further 20 h

In the case of `N[C@@H](CCC(=O)N[C@@H](CS)C(=O)NCC(=O)O)C(=O)O` [GSH, Glutathione], the “IFN-γ pc per 1x10^4 MNC” value [1, 5] is reported as 98 ± 11 per 1 x 10^4 MNC, the “IL-4 pc per 2x10^5 MNC” value [1, 5] is reported as 60 ± 5 per 2 x 10^5 MNC and the “ratio IFN-γ pc/IL-4 pc” value [1, 5] is reported as 34. The “IFN-γ pc per 1x10^4 MNC” value [1, 6] was 139 ± 14 per 1 x 10^4 MNC, the “IL-4 pc per 2x10^5 MNC” value [1, 6] was 11 ± 3 per 2 x 10^5 MNC and the “ratio IFN-γ pc/IL-4 pc” value [1, 6] was 253. For the same compound, the “enhancement of the ratio of IFN-γ pc/IL-4 pc” value [1, 7] was “approximately 10 fold”, the “IFN-γ pc per 1x10^4 MNC” value [1, 8] was 103 ± 23 per 1 x 10^4 MNC and the “IL-4 pc per 2x10^5 MNC” value [1, 8] was 6 ± 1 per 2 x 10^5 MNC. The “ratio IFN-γ pc/IL-4 pc” value [1, 8] was 343.

With `N[C@@H](CCC(=O)N[C@@H](CSN=O)C(=O)NCC(=O)O)C(=O)O` [GSNO, S-nitrosoglutathione] the “Nitrate in the solutions” value ([2]; GSH-triggered decomposition of GSNO) was “not detected”, the “decomposition of GSNO” value ([2]; absence of GSH, 0.1 mM, 42 h, room temperature (not shown)) was “no significant decomposition” and the major decomposition product ([2]; molar ratios exceeding 20 (Fig. 5)) was “NH3”. For the same compound, the “time in which decomposition was almost completed” value ([2]; ratio of GSH:GSNO of 320 (fig. 3)) was about 5 h.

In the case of `OO` [H2O2, hydrogen peroxide], the “frequencies of IFN-γ pc and IL-4 pc” value ([1]; H2O2 up to 100 µM added to cultures (not shown)) is reported as “did not affect”.

In the case of `CNC(=N)NCCC[C@H](N)C(=O)O` [NMMA, N^G-monomethyl-L-arginine], the “IFN-γ pc per 1x10^4 MNC” value [1, 9] is reported as 209 ± 19 per 1x10^4 MNC, the “IL-4 pc per 2x10^5 MNC” value [1, 9] is reported as 32 ± 6 per 2x10^5 MNC and the “ratio pc IFN-γ/IL-4” value [1, 9] is reported as 131. For the same compound, the “IFN-γ pc per 1x10^4 MNC” value [1, 10] was 251 ± 14 per 1x10^4 MNC, the “IL-4 pc per 2x10^5 MNC” value [1, 10] was 30 ± 2 per 2x10^5 MNC and the “ratio pc IFN-γ/IL-4” value [1, 10] was 167. The “IFN-γ pc per 1x10^4 MNC” value [1, 11] was 71 ± 11 per 1x10^4 MNC, the “IL-4 pc per 2x10^5 MNC” value [1, 11] was 54 ± 11 per 2x10^5 MNC and the “ratio pc IFN-γ/IL-4” value [1, 11] was 26. For the same compound, the “IFN-γ pc per 1x10^4 MNC” value [1, 12] was 92 ± 17 per 1x10^4 MNC, the “IL-4 pc per 2x10^5 MNC” value [1, 12] was 20 ± 5 per 2x10^5 MNC and the “ratio pc IFN-γ/IL-4” value [1, 12] was 92. For the same compound, the “enhancement of the ratio of IFN-γ pc/IL-4 pc” value ([1]; HgCl2-exposed rats, BN splenocyte cultures) was 11 fold, the “enhancement of the ratio of IFN-γ pc/IL-4 pc” value ([1]; HgCl2-exposed rats, Lewis splenocyte cultures) was 2 fold and the “IFN-γ pc per 1x10^4 MNC” value [1, 13] was 175 ± 9 per 1x10^4 MNC. For the same compound, the “IL-4 pc per 2x10^5 MNC” value [1, 13] was 14 ± 7 per 2x10^5 MNC, the “ratio pc IFN-γ/IL-4” value [1, 13] was 250 and the “IFN-γ pc per 1x10^4 MNC” value [1, 14] was 178 ± 11 per 1x10^4 MNC. The “IL-4 pc per 2x10^5 MNC” value [1, 14] was 13 ± 2 per 2x10^5 MNC, the “ratio pc IFN-γ/IL-4” value [1, 14] was 274 and the “IFN-γ pc per 1x10^4 MNC” value [1, 15] was 112 ± 5 per 1x10^4 MNC. For the same compound, the “IL-4 pc per 2x10^5 MNC” value [1, 15] was 10 ± 5 per 2x10^5 MNC, the “ratio pc IFN-γ/IL-4” value [1, 15] was 224 and the “IFN-γ pc per 1x10^4 MNC” value [1, 16] was 135 ± 10 per 1x10^4 MNC. The “IL-4 pc per 2x10^5 MNC” value [1, 16] was 8 ± 2 per 2x10^5 MNC, the “ratio pc IFN-γ/IL-4” value [1, 16] was 338 and the “increase in the ratio of IFN-γ pc/IL-4 pc” value ([1]; splenocyte cultures of naive BN rats) was 4 fold.

In the case of `CCCCCCCCCCCCCC(=O)O[C@@H]1[C@@H](C)[C@@]2(O)[C@@H](C=C(CO)C[C@]3(O)C(=O)C(C)=C[C@@H]23)[C@@H]2C(C)(C)[C@]12OC(C)=O` [PMA, phorbol 12-myristate 13-acetate], the “ROI H2O2 (nmol/mg protein)” value (peritoneal macrophages [3]; BN normal rats) is reported as 8.7 nmol/mg protein, the “ROI H2O2 (nmol/mg protein)” value (peritoneal macrophages [3]; Lewis normal rats) is reported as 1.9 nmol/mg protein and the “ROI ^·O2^- (nmol/mg protein)” value (peritoneal macrophages [4]; BN normal rats) is reported as 388.2 nmol/mg protein. The “ROI ^·O2^- (nmol/mg protein)” value (peritoneal macrophages [4]; Lewis normal rats) was 62.1 nmol/mg protein.

For `N[C@@H](CS)C(=O)O` [cysteine], the “enhancement of the ratio of IFN-γ pc/IL-4 pc” value [1, 7] was “approximately 10 fold”.
